Assay results as given in patent US20210392890A1, “COMPOSITIONS COMPRISING PYRIDINE CARBOXYLATE HERBICIDES AND PLANT GROWTH REGULATORS” (Corteva Agriscience LLC, priority 2018, published 2021).
Values joined by “and” are separate entries in the source; they are usually repeats but may differ in a detail not shown here. Equal values may be shown once. Read-outs that look alike come from different tables or passages of the source.

Assays:
Type in all cases: in vivo
[1] = test system: Capsella bursa-pastoris (shepherd's purse); assay: Greenhouse postemergence herbicidal effect on CAPBP
Excerpt: (§1) Seeds of the desired test plant species were planted in a 90:10% v/v (volume/volume) mixture of PRO-MIX® BX (Premier Tech Horticulture, Quakertown, Pa., USA) and PROFILE® GREENS GRADE™ (Profile Products LLC, Buffalo Grove, Ill., USA) planting mixture, which typically has a pH of 5.2 to 6.2 and an organic matter content of at least 50 percent, in plastic pots with a surface area of 103.2 square centimeters (cm^2). In some aspects, to help ensure good germination and healthy plants, a fungicide treatment and/or other chemical or physical treatment was applied. The plants were grown for 7-36 days (d) in a greenhouse with an approximate 14-hour (h) photoperiod which was maintained at about 23° C. during the day and 22° C. during the night. Nutrients and water were added on a regular basis and supplemental lighting was provided with overhead metal halide 1000-Watt lamps as necessary. The plants were employed for testing when they reached the second or third true leaf stage.
(§2) Emulsifiable concentrates of each of each pyridine carboxylate herbicide (Compound A or Compound B) were prepared at 100 grams acid equivalent per liter (g ae/L). The emulsifiable concentrates also included a safener, cloquintocet-mexyl, at 120 grams active ingredient per liter (g ai/L). […]
(§3) The treated plants and control plants were placed in a greenhouse as described above and watered by sub-irrigation to prevent wash-off of the test compounds. After 20-22 d, the condition of the test plants as compared with that of the control plants was determined visually and scored on a scale of 0 to 100 percent where 0 corresponds to no injury and 100 corresponds to complete kill.

[2] = test system: Papaver rhoeas (herbicide-resistant poppy); assay: Greenhouse postemergence herbicidal effect on PAPRH-RES
Excerpt: as §1, §2, §3

[3] = test system: Kochia scoparia (kochia); assay: Greenhouse postemergence herbicidal effect on KCHSC; details: for Herbicidal Effects (% visual injury) KCHSC Obs: Ethephon 0 g/ha
Excerpt: as §1
(§4) Emulsifiable concentrates of each of each pyridine carboxylate herbicide (Compound A or Compound B) were prepared at 100 grams acid equivalent per liter (g ae/L). The emulsifiable concentrates also included a safener, cloquintocet-mexyl, at 120 grams active ingredient per liter (g ai/L). An aliquot of each emulsifiable concentrate was placed in a 25 mL glass vial and diluted with an aqueous mixture of 1.25% (v/v) ACTIROB® B esterified rapeseed oil (Bayer Crop Science, Research Triangle Park, N.C., USA) or MSO® Concentrate with LECI-TECH® methylated soybean oil (Loveland Products, Loveland, Colo., USA) to obtain concentrated stock solutions at the highest application rate for each herbicide, based upon a 12 milliliter (mL) application volume at a rate of 187 liters per hectare (L/ha). The concentrated stock solutions were further diluted with an aqueous mixture of 1.25% v/v ACTIROB® B or MSO® Concentrate with LECI-TECH® to obtain stock solutions at reduced application rates for each herbicide. Spray solutions of the herbicide combinations (Compound A or Compound B plus the PGR) were prepared by adding weighed amounts or aliquots of the PGR to the stock solutions of Compound A or Compound B to form 12-mL spray solutions in two-way combinations.
(§5) The spray solutions were applied to the plant material with an overhead Mandel track sprayer equipped with 8002E nozzles calibrated to deliver 187 L/ha over an application area of 0.503 square meters (m^2) at a spray height of 18 inches (43 centimeters (cm)) above the average plant canopy. Control plants were sprayed in the same manner with the solvent blank. All pyridine carboxylate herbicide (component a) application rates are given as “g ae/ha” and all PGR (component b) application rates are given as “g ai/ha.”
as §3

[4] = test system: Setaria faberi (giant foxtail); assay: Greenhouse postemergence herbicidal effect on SETFA; details: for Herbicidal Effects (% visual injury) SETFA Obs: Ethephon 0 g/ha
Excerpt: as §1, §4, §5, §3

[5] = test system: Cirsium arvense (Canada thistle); assay: Greenhouse postemergence herbicidal effect on CIRAR; details: for Herbicidal Effects (% visual injury) CIRAR Obs: Ethephon 0 g/ha
Excerpt: as §1, §4, §5, §3

[6] = test system: Amaranthus retroflexus (pigweed); assay: Greenhouse postemergence herbicidal effect on AMARE; details: for Herbicidal Effects (% visual injury) AMARE Obs: Ethephon 0 g/ha
Excerpt: as §1, §4, §5, §3

[7] = test system: Brassica napus (winter rape); assay: Greenhouse postemergence herbicidal effect on BRSNW
Excerpt: as §1, §2, §3

[8] = test system: Viola arvensis (field violet); assay: Greenhouse postemergence herbicidal effect on VIOAR
Excerpt: as §1, §2, §3

[9] = test system: Triticum aestivum (spring wheat)
Excerpt: as §1, §4, §5, §3

[10] = test system: Viola tricolor (wild pansy); assay: Greenhouse postemergence herbicidal effect on VIOTR; details: for Herbicidal Effects (% visual injury) VIOTR Obs: Ethephon 0 g/ha
Excerpt: as §1, §4, §5, §3

[11] = test system: Salsola kali (Russian thistle); assay: Greenhouse postemergence herbicidal effect on SASKR
Excerpt: as §1, §2, §3

[12] = test system: Euphorbia heterophylla (poinsettia); assay: Greenhouse postemergence herbicidal effect on EPHHL; details: for Herbicidal Effects (% visual injury) EPHHL Obs: Ethephon 0 g/ha
Excerpt: as §1, §4, §5, §3

[13] = test system: Digitaria sanguinalis (large crabgrass); assay: Greenhouse postemergence herbicidal effect on DIGSA; details: Ethephon 0 g/ha
Excerpt: as §1, §2
The treated plants and control plants were placed in a greenhouse as described above and watered by sub-irrigation to prevent wash-off of the test compounds. After 20-22 d, the condition of the test plants as compared with that of the control plants was determined visually and scored on a scale of 0 to 100 percent where 0 corresponds to no injury and 100 corresponds to complete kill. […]

[14] = test system: Abutilon theophrasti (velvetleaf); assay: Greenhouse postemergence herbicidal effect on ABUTH; details: for Herbicidal Effects (% visual injury) ABUTH Obs: Ethephon 0 g/ha
Excerpt: as §1, §4, §5, §3

[15] = test system: Chenopodium album L. (common lambsquarters); assay: Greenhouse postemergence herbicidal effect on CHEAL; details: Ethephon 0 g/ha
Excerpt: as §1, §4, §5, §3

[16] = test system: Sinapis arvensis (wild mustard); assay: Greenhouse postemergence herbicidal effect on SINAR
Excerpt: as §1, §2, §3

[17] = test system: Papaver rhoeas (common poppy); assay: Greenhouse postemergence herbicidal effect on PAPRH
Excerpt: as §1, §2, §3

N#CCOC(=O)c1nc(-c2ccc3cc[nH]c3c2F)c(F)c(N)c1Cl [Compound A, cyanomethyl 4-amino-3-chloro-5-fluoro-6-(7-fluoro-1H-indol-6-yl)pyridine-2-carboxylate]
% visual injury Obs ([1]; herbicide 7.5 g ae/ha alone): 45% | % visual injury Obs ([1]; herbicide 10 g ae/ha alone): 55% | % visual injury Obs ([1]; herbicide 15 g ae/ha alone): 55% | % visual injury Obs ([2]; herbicide 7.5 g ae/ha alone): 96% | % visual injury Obs ([2]; herbicide 10 g ae/ha alone): 98% | % visual injury Obs ([2]; herbicide 15 g ae/ha alone): 100% | Herbicidal Effects (% visual injury) KCHSC Obs ([3]; Compound A 7.5 g/ha): 70% | Herbicidal Effects (% visual injury) KCHSC Obs ([3]; Compound A 10 g/ha): 65% | % visual injury Obs ([3]; herbicide 7.5 g ae/ha alone): 63% and 75% | % visual injury Obs ([3]; herbicide 10 g ae/ha alone): 65% and 73% | % visual injury Obs ([3]; herbicide 15 g ae/ha alone): 63% | Herbicidal Effects (% visual injury) SETFA Obs ([4]; Compound A 7.5 g/ha): 55% | Herbicidal Effects (% visual injury) SETFA Obs ([4]; Compound A 10 g/ha): 70% | % visual injury Obs ([4]; herbicide 7.5 g ae/ha alone): 78% | % visual injury Obs ([4]; herbicide 10 g ae/ha alone): 80% | Herbicidal Effects (% visual injury) CIRAR Obs ([5]; Compound A 7.5 g/ha): 50% | Herbicidal Effects (% visual injury) CIRAR Obs ([5]; Compound A 10 g/ha): 60% | % visual injury Obs ([5]; herbicide 7.5 g ae/ha alone): 25% and 40% and 50% | % visual injury Obs ([5]; herbicide 15 g ae/ha alone): 63% | Herbicidal Effects (% visual injury) AMARE Obs ([6]; Compound A 7.5 g/ha): 99% | Herbicidal Effects (% visual injury) AMARE Obs ([6]; Compound A 10 g/ha): 100% | % visual injury Obs ([6]; herbicide 7.5 g ae/ha alone): 80% and 88% | % visual injury Obs ([6]; herbicide 10 g ae/ha alone): 85% and 88% | % visual injury Obs ([7]; herbicide 7.5 g ae/ha alone): 60% | % visual injury Obs ([7]; herbicide 10 g ae/ha alone): 65% | % visual injury Obs ([7]; herbicide 15 g ae/ha alone): 73% | % visual injury Obs ([8]; herbicide 7.5 g ae/ha alone): 10% | % visual injury Obs ([8]; herbicide 10 g ae/ha alone): 13% | % visual injury Obs ([8]; herbicide 15 g ae/ha alone): 10% | % visual injury Obs ([9]; herbicide 7.5 g ae/ha alone): 0% and 5% | % visual injury Obs ([9]; herbicide 10 g ae/ha alone): 0% and 3% | % visual injury Obs ([9]; herbicide 15 g ae/ha alone): 0% | Herbicidal Effects (% visual injury) VIOTR Obs ([10]; Compound A 7.5 g/ha): 13% | Herbicidal Effects (% visual injury) VIOTR Obs ([10]; Compound A 10 g/ha): 20% | % visual injury Obs ([10]; herbicide 15 g ae/ha alone): 15% | % visual injury Obs ([11]; herbicide 7.5 g ae/ha alone): 50% | % visual injury Obs ([11]; herbicide 10 g ae/ha alone): 60% | % visual injury Obs ([11]; herbicide 15 g ae/ha alone): 63% | Herbicidal Effects (% visual injury) EPHHL Obs ([12]; Compound A 7.5 g/ha): 100% | Herbicidal Effects (% visual injury) EPHHL Obs ([12]; Compound A 10 g/ha): 100% | % visual injury Obs ([12]; herbicide 7.5 g ae/ha alone): 91% | % visual injury Obs ([12]; herbicide 10 g ae/ha alone): 83% | Herbicidal Effects (% visual injury) DIGSA Obs ([13]; Compound A 7.5 g/ha): 10% | Herbicidal Effects (% visual injury) DIGSA Obs ([13]; Compound A 10 g/ha): 10% | Herbicidal Effects (% visual injury) ABUTH Obs ([14]; Compound A 7.5 g/ha): 73% | Herbicidal Effects (% visual injury) ABUTH Obs ([14]; Compound A 10 g/ha): 85% | % visual injury Obs ([14]; herbicide 7.5 g ae/ha alone): 40% and 68% | % visual injury Obs ([14]; herbicide 10 g ae/ha alone): 48% and 80% | Herbicidal Effects (% visual injury) CHEAL Obs ([15]; Compound A 7.5 g/ha): 100% | Herbicidal Effects (% visual injury) CHEAL Obs ([15]; Compound A 10 g/ha): 100% | % visual injury Obs ([16]; herbicide 7.5 g ae/ha alone): 88% | % visual injury Obs ([16]; herbicide 10 g ae/ha alone): 91% | % visual injury Obs ([16]; herbicide 15 g ae/ha alone): 91% | % visual injury Obs ([17]; herbicide 7.5 g ae/ha alone): 100% | % visual injury Obs ([17]; herbicide 10 g ae/ha alone): 99% | % visual injury Obs ([17]; herbicide 15 g ae/ha alone): 100%
